Test results taken from the supplement of paper PMC11208160.

assay: recombinant UMI read abundance after kanamycin selection (control-corrected) (log10(CPM+1)); higher = more efficient recombination; extreme values may be limits of the assay; sequences stand for … in AGTGCAGAGAAAATCGGCCAGTTTTCTCTGCCTGCAGTCCGCATGCCGTGGGACCCCTTGGGTTCTAACCTGTTGCCTAGATTTATGCAGCGGACTGCCTTTCTCCCAAAGTGATAAACCGG…AGGTTGGTTTCACT; site = the 11-nt donor
How it was run: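 In Escherichia coli, a pool of donor and donor-binding-loop pairs, each with a 12-nt UMI, was tested for the IS621 bridge recombinase. Plating was on IPTG (0.07 mM) plus kanamycin, or without selection, in two replicates. Recombinant UMIs were amplified by PCR across the donor–target junction and sequenced, and counts were reported as log10(CPM+1) after averaging and control-derived scaling.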
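Note: IS621 bridge recombinase in Escherichia coli cells against a fixed T5 target plasmid.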

Row | Sequence | recombinant UMI read abundance (log10)
1 | ATTTAGTCATGGACCGGTTTTCCCGGTAATCCGTATTTGTT (site CACATCCCTTC) | 0.0539
2 | ATTTCTACATGGACCGGTTTTCCCGGTAATCCGTATTTGTT (site ATTTCTACTAA) | 0.0251
3 | ATTTGATCATGGACCGGTTTTCCCGGTAATCCGTATTTGTG (site ATTTGATCTCA) | 1.71
4 | CAAACAGCATGGACCGGTTTTCCCGGTAATCCGTATTTGCT (site CAAACAGCTAG) | 2.26
5 | CAAACAGCATGGACCGGTTTTCCCGGTAATCCGTATTTGCT (site CAACCAGCTAG) | 0.00434
6 | CAAACAGCATGGACCGGTTTTCCCGGTAATCCGTATTTGCT (site CAAGCAGCTAG) | 0.00437
7 | CAAACAGCATGGACCGGTTTTCCCGGTAATCCGTATTTGCT (site CAATCAGCTAG) | 0
8 | CAAAGAACATGGACCGGTTTTCCCGGTAATCCGTATTTGCG (site CAAAGAACTCG) | 2.53
9 | CAAAGGGCATGGACCGGTTTTCCCGGTAATCCGTATTTGAC (site CAAAGGGCTGT) | 2.62
10 | CAAATTTCATGGACCGGTTTTCCCGGTAATCCGTATTTGTG (site CAAATTTCTCA) | 0.763
11 | CAACAGACATGGACCGGTTTTCCCGGTAATCCGTATTTGAA (site CAACAGACTTT) | 1.88
12 | CAACCAGCATGGACCGGTTTTCCCGGTAATCCGTATTTGCT (site CAAACAGCTAG) | 0
13 | CAACCAGCATGGACCGGTTTTCCCGGTAATCCGTATTTGCT (site CAACCAGCTAG) | 0
14 | CAACCAGCATGGACCGGTTTTCCCGGTAATCCGTATTTGCT (site CAAGCAGCTAG) | 0
15 | CAACCAGCATGGACCGGTTTTCCCGGTAATCCGTATTTGCT (site CAATCAGCTAG) | 0
16 | CAACCCACATGGACCGGTTTTCCCGGTAATCCGTATTTGAT (site CAACCCACTAT) | 0.946
17 | CAACCTGCATGGACCGGTTTTCCCGGTAATCCGTATTTGGC (site CAACCTGCTGC) | 0
18 | CAACTAACATGGACCGGTTTTCCCGGTAATCCGTATTTGGA (site CAACTAACTTC) | 1.93
19 | CAACTAACATGGACCGGTTTTCCCGGTAATCCGTATTTGGA (site CCACTAACTTC) | 0.226
20 | CAACTAACATGGACCGGTTTTCCCGGTAATCCGTATTTGGA (site CGACTAACTTC) | 0.548
21 | CAACTAACATGGACCGGTTTTCCCGGTAATCCGTATTTGGA (site CTACTAACTTC) | 0.341
22 | CAACTAGCATGGACCGGTTTTCCCGGTAATCCGTATTTGCA (site CAACTAGCTTG) | 1.13
23 | CAACTATCATGGACCGGTTTTCCCGGTAATCCGTATTTGAT (site CAACTATCTAT) | 0.885
24 | CAAGAATCATGGACCGGTTTTCCCGGTAATCCGTATTTGAC (site CAAGAATCTGT) | 2.88
25 | CAAGAATCATGGACCGGTTTTCCCGGTAATCCGTATTTGAC (site CTAGTATCTGT) | 0.416

Row | Sequence | recombinant UMI read abundance (log10)
26 | CAAGACACATGGACCGGTTTTCCCGGTAATCCGTATTTGGG (site CAAGACACTCC) | 1.28
27 | CAAGACACATGGACCGGTTTTCCCGGTAATCCGTATTTGGG (site CAAGCCACTCC) | 0.00576
28 | CAAGACACATGGACCGGTTTTCCCGGTAATCCGTATTTGGG (site CAAGGCACTCC) | 0.0364
29 | CAAGACACATGGACCGGTTTTCCCGGTAATCCGTATTTGGG (site CAAGTCACTCC) | 0.274
30 | CAAGATACATGGACCGGTTTTCCCGGTAATCCGTATTTGGT (site CAAGATACTAC) | 1.97
31 | CAAGCACCATGGACCGGTTTTCCCGGTAATCCGTATTTGTG (site CAAGCACCTCA) | 0.018
32 | CAAGCACCATGGACCGGTTTTCCCGGTAATCCGTATTTGTG (site CAAGCCCCTCA) | 0.00553
33 | CAAGCACCATGGACCGGTTTTCCCGGTAATCCGTATTTGTG (site CAAGCGCCTCA) | 0.00843
34 | CAAGCACCATGGACCGGTTTTCCCGGTAATCCGTATTTGTG (site CAAGCTCCTCA) | 0
35 | CAAGCAGCATGGACCGGTTTTCCCGGTAATCCGTATTTGCA (site CAAGCAGCTAG) | 1.22
36 | CAAGCAGCATGGACCGGTTTTCCCGGTAATCCGTATTTGCA (site CAAGCAGCTCG) | 1.43
37 | CAAGCAGCATGGACCGGTTTTCCCGGTAATCCGTATTTGCA (site CAAGCAGCTGG) | 1.06
38 | CAAGCAGCATGGACCGGTTTTCCCGGTAATCCGTATTTGCA (site CAAGCAGCTTG) | 2.81
39 | CAAGCAGCATGGACCGGTTTTCCCGGTAATCCGTATTTGGT (site CAAGCAGCTAA) | 0.922
40 | CAAGCAGCATGGACCGGTTTTCCCGGTAATCCGTATTTGGT (site CAAGCAGCTAC) | 1.73
41 | CAAGCAGCATGGACCGGTTTTCCCGGTAATCCGTATTTGGT (site CAAGCAGCTAG) | 1.5
42 | CAAGCAGCATGGACCGGTTTTCCCGGTAATCCGTATTTGGT (site CAAGCAGCTAT) | 1.85
43 | CAAGCGACATGGACCGGTTTTCCCGGTAATCCGTATTTGTG (site CAAGCGACTCA) | 1.19
44 | CAAGCGACATGGACCGGTTTTCCCGGTAATCCGTATTTGTG (site CAAGCGCCTCA) | 0.00397
45 | CAAGCGACATGGACCGGTTTTCCCGGTAATCCGTATTTGTG (site CAAGCGGCTCA) | 1.2
46 | CAAGCGACATGGACCGGTTTTCCCGGTAATCCGTATTTGTG (site CAAGCGTCTCA) | 0.756
47 | CAAGCTCCATGGACCGGTTTTCCCGGTAATCCGTATTTGTG (site CAAGCACCTCA) | 0.0218
48 | CAAGCTCCATGGACCGGTTTTCCCGGTAATCCGTATTTGTG (site CAAGCCCCTCA) | 0.0101
49 | CAAGCTCCATGGACCGGTTTTCCCGGTAATCCGTATTTGTG (site CAAGCGCCTCA) | 0.0257
50 | CAAGCTCCATGGACCGGTTTTCCCGGTAATCCGTATTTGTG (site CAAGCTCCTCA) | 0.0252

Row | Sequence | recombinant UMI read abundance (log10)
51 | CAAGGCCCATGGACCGGTTTTCCCGGTAATCCGTATTTGGC (site CAAGGCCCTGC) | 2.11
52 | CAAGGTGCATGGACCGGTTTTCCCGGTAATCCGTATTTGTT (site CAAGGTGCTAA) | 2.59
53 | CAAGTAACATGGACCGGTTTTCCCGGTAATCCGTATTTGAC (site CAAGTAACTGT) | 3.09
54 | CAAGTAACATGGACCGGTTTTCCCGGTAATCCGTATTTGAC (site CTAGTATCTGT) | 0.497
55 | CAAGTATCATGGACCGGTTTTCCCGGTAATCCGTATTTGTC (site CAAGTATCTGA) | 2.66
56 | CAAGTATCATGGACCGGTTTTCCCGGTAATCCGTATTTGTC (site CTAGTATCTGT) | 0
57 | CAAGTCACATGGACCGGTTTTCCCGGTAATCCGTATTTGGC (site CAAGTCACTAC) | 0.739
58 | CAAGTCACATGGACCGGTTTTCCCGGTAATCCGTATTTGGC (site CAAGTCACTCC) | 0.402
59 | CAAGTCACATGGACCGGTTTTCCCGGTAATCCGTATTTGGC (site CAAGTCACTGC) | 2.99
60 | CAAGTCACATGGACCGGTTTTCCCGGTAATCCGTATTTGGC (site CAAGTCACTTC) | 0.596
61 | CAAGTCTCATGGACCGGTTTTCCCGGTAATCCGTATTTGAC (site CAAGTCTCTGT) | 3.08
62 | CAAGTCTCATGGACCGGTTTTCCCGGTAATCCGTATTTGAC (site CTAGTATCTGT) | 0.00697
63 | CAATCAACATGGACCGGTTTTCCCGGTAATCCGTATTTGTG (site CAATCAACTCA) | 0.737
64 | CAATCCCCATGGACCGGTTTTCCCGGTAATCCGTATTTGCT (site CAATACCCTAG) | 1.5
65 | CAATCCCCATGGACCGGTTTTCCCGGTAATCCGTATTTGCT (site CAATCCCCTAG) | 0.977
66 | CAATCCCCATGGACCGGTTTTCCCGGTAATCCGTATTTGCT (site CAATGCCCTAG) | 0
67 | CAATCCCCATGGACCGGTTTTCCCGGTAATCCGTATTTGCT (site CAATTCCCTAG) | 1.78
68 | CAATCGCCATGGACCGGTTTTCCCGGTAATCCGTATTTGTG (site CAAACGCCTCA) | 0.0185
69 | CAATCGCCATGGACCGGTTTTCCCGGTAATCCGTATTTGTG (site CAACCGCCTCA) | 0.0282
70 | CAATCGCCATGGACCGGTTTTCCCGGTAATCCGTATTTGTG (site CAAGCGCCTCA) | 0.0173
71 | CAATCGCCATGGACCGGTTTTCCCGGTAATCCGTATTTGTG (site CAATCGCCTCA) | 0.22
72 | CAATCGTCATGGACCGGTTTTCCCGGTAATCCGTATTTGCT (site CAATCGTCTAG) | 2.84
73 | CAATCGTCATGGACCGGTTTTCCCGGTAATCCGTATTTGCT (site CGATCATCTAG) | 0
74 | CAATCTACATGGACCGGTTTTCCCGGTAATCCGTATTTGTC (site CAATCTACTGA) | 2.28
75 | CAATGGCCATGGACCGGTTTTCCCGGTAATCCGTATTTGCA (site AAATGGCCTTG) | 0
